According to patent publication US9345667B2, “Particles having hydrophobic material therein” (Australian Nuclear Science and Technology Organisation, priority 2005, dated 2016):
In brackets after ≈: the same amount, converted by molar mass.

Key:
[1] = cited from earlier work
[2] = Release of SB-35 dye from silica microparticles (UV/Vis); type: physicochemical; conditions: in cyclohexane, compared with dodecane
Protocol: 1. The encapsulation efficiency and release rate of the hydrophobic dye were determined by UV/Vis spectroscopy (Cary 50). The encapsulation efficiency was estimated by two methods. The first one was an indirect measurement, which consisted of measuring the U/Vis absorbance of the cyclohexane/Span 80 solutions after the silica particles had been filtered out. The encapsulation efficiency of the dye was calculated by subtracting the dye measured in the outer oil phase from the original dye concentration introduced into the system. A standard calibration curve was generated by adding accurate amounts of dye into the outer oil phase, with identical composition and concentration as the one used for the preparation of the corresponding samples. The second “direct” method consisted of measuring the release of SB-35 from the silica particles in a solvent such as ethanol, cyclohexane or dodecane, until the absorbance was stable. A standard calibration curve was produced by using the identical composition and concentration as the sample release media. (The surfactant content was estimated by the TGA/DTA result). The absorbance was measured at different intervals of time while stirring the product to produce the dye release curve.
The faster release rate observed in the case of the cyclohexane may be explained by the higher lipophilicity of the cyclohexane. […]

[3] = UV/Vis of retinol during release from retinol-doped silica particles; type: physicochemical; conditions: release in anhydrous ethanol

CN(C)C(=O)Nc1ccc(Cl)c(Cl)c1 [diuron, 3-(3,4-Dichlorophenyl)-1,1-dimethylurea]
solubility in methanol [1]: 43 mg/mL (≈ 184 mM)

CCCCNc1ccc(NCCCC)c2c1C(=O)c1ccccc1C2=O [SB-35, Solvent Blue 35]
release rate of SB-35 from silica microparticles [2]: faster than in dodecane

CC1=C(/C=C/C(C)=C/C=C/C(C)=C/CO)C(C)(C)CCC1 [retinol]
retinol UV/Vis band during release [3]: disappeared
